Literature values as cited in patent publication US9583325B2, “System and method of delicate membrane condensed phase membrane introduction mass spectrometry (CP-MIMS)” (priority 2013, dated 2017).

Columns and labels:
[1] = for Log Kow: Table 1, SRC Physical Properties Database
[2] = SRC Physical Properties Database

Row | Compound | Log Kow [1] | Vapour pressure [2] | log Kow ([1]; values given in text of Example 10)
1 | Oc1cc(Cl)ccc1Oc1ccc(Cl)cc1Cl [Triclosan, 5-chloro-2-(2,4-dichlorophenoxy)phenol] | 4.76 | 8.6 × 10^−5 Pa | 
2 | CC(C)C1=CC2=CC[C@@H]3[C@](C)(CCC[C@@]3(C)C(=O)O)[C@H]2CC1 [Abietic Acid, Abietic acid] | 6.46 | 4.3 × 10^−5 Pa | 
3 | Cc1ccc(C)c(OCCCC(C)(C)C(=O)O)c1 [Gemfibrozil, 5-(2,5-dimethylphenoxy)-2,2-dimethyl-pentanoic acid] | 4.30 | 8.1 × 10^−5 Pa | 
4 | nonylphenol | 5.76 | 1.15 Pa | 6.04
